Data taken from patent US7691844B2, “Nonpeptide substituted spirobenzoazepines as vasopressin antagonists” (Ortho-McNeil Pharmaceutical, Inc., priority 2000, dated 2010).

Experiments:
human V2 receptor = human V2 receptor (Homo sapiens, UniProt P30518); test: In-vitro receptor binding assay (3H-arginine-8-vasopressin), V2
Summary of the method: (§1)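 Radioligand is 3H-arginine-8-vasopressin, incubated with receptor for one hour at room temperature, then filtered on GF/C plates and counted by scintillation. Non-specific binding was defined with 1.25 μM vasopressin, and results are given as % inhibition.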

V1a [1] = molecular target: T1, V1a (Homo sapiens, UniProt P37288); test: In-vitro receptor binding assay (3H-arginine-8-vasopressin), V1a
T1 sequence (P37288 whole entry): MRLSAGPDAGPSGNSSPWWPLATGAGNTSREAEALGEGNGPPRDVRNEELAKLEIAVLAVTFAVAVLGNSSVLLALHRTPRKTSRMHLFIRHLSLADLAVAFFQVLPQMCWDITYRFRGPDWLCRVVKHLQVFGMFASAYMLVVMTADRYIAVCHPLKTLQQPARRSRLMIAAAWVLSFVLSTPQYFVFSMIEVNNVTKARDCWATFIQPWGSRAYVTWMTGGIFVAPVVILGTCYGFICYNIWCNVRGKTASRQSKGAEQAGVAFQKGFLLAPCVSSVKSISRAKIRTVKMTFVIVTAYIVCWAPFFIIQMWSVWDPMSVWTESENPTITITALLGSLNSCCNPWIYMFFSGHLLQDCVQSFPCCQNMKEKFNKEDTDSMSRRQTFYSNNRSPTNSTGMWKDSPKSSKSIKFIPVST
Summary of the method: as §1

V1b = molecular target: T2, V1b (Homo sapiens, UniProt P47901); test: In-vitro receptor binding assay (3H-arginine-8-vasopressin), V1b
T2 sequence (P47901 1-424): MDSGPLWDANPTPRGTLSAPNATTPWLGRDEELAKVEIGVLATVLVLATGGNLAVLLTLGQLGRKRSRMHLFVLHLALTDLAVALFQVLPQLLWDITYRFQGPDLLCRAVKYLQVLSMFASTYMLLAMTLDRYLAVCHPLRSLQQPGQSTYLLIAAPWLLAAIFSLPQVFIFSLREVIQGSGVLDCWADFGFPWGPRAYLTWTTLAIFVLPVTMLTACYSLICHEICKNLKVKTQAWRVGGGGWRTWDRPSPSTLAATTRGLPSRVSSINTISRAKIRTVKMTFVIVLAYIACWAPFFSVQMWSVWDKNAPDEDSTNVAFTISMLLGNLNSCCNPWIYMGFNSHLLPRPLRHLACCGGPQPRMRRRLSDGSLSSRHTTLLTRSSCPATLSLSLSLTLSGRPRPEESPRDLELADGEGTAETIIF
Method: (A) In-Vitro Binding Assay […] The reaction plates are allowed to sit at room temperature for one hour. The samples are filtered through Unifilter GF/C plates (presoaked in 0.3 polyethyleneimine). The plates are washed 5 times with cold physiological saline containing 0.05% Tween 20. After drying, the bottom of the filter plates are sealed and 0.025 ml of Microscint-20 is added to each filter. The top of the plate is sealed, and the plate is counted. Non-specific binding is determined by the addition of 1.25 μM […]-vasopressin in those wells. % Inh. is calculated as follows: […]

V1a [2] = molecular target: T1, V1a; test: V1a vasopressin receptor functional activity (inhibition of vasopressin-induced intracellular calcium, FLIPR, V1a-HEK cells); format: cell-based; set-up: expressed in transfected cells; conditions: HEK-293 cells transfected with human V1a receptor; vasopressin challenge
Method: [formula] (B) V1a Vasopressin Receptor Functional Activity
The V1a receptor is a G-protein coupled receptor, which upon activation triggers an increase in intracellular calcium mobilization. To evaluate compounds for their functional V1a receptor activity, HEK-293 cells were transfected with the human V1a receptor (V1a-HEK cells). HEK-293 cells were grown in DMEM (Dulbecco's modified Eagle Media) supplemented with 10% FBS and glutamine. HEK-cells were passed biweekly by trypsinization and seeded into 96 well plates at 33,000 cells per well. HEK-293 cells were transfected with human V1a receptor DNA using DMRIE-C reagent from Life Technologies. Stable lines were generated by selecting cells grown in culture media containing geneticin. After growing in Packard Clear-View black 96 well plates for 4-6 days, V1a-HEK cells were loaded with the calcium-sensitive fluorescence dye, FLUO-3 AM. Changes in cell fluorescence were quantitated using FLIPR (Fluorometric Imaging Plate Reader; Molecular Devices, Sunnyvale, Calif.). Test compounds were first added to the cells and the resulting changes in fluorescence measured to detect receptor agonistic activity. Five minutes later the cells were challenged with vasopressin to test compounds for their antagonistic activity. Receptor antagonists inhibit the ability of vasopressin to stimulate increases in intracellular fluorescence. IC50's were calculated.

[3] = @ 10 μM, read-out: Receptor Binding V1b (% Inh. @ concentration in μM)
[4] = @ 0.1 μM, read-out: Receptor Binding V2 (% Inh. @ concentration in μM)

Molecule | IC50 (human V2 receptor) [µM] | IC50 (V1a [1]) [µM] | IC50 (V1a [2]) [µM] | also measured
CN(C)CCNC(=O)C1=C[C@]2(CC1)CCN(C(=O)c1ccc(NC(=O)c3ccccc3-c3ccccc3)cc1)c1ccccc1C2 [Compound 20, (S)-4-(2-phenylbenzoyl-4-aminobenzoyl)-3′-(2-(N,N-dimethylaminoethylaminocarbonyl))-4-aza-[6,4]-spiro-[5,6]-benzoundec-2′-ene] | 0.016 | 0.003 | 0.002 | Receptor Binding V1b (% Inh. @ concentration in μM) (V1b; @ 10 μM): 13% @ 10
CN(C)CCNC(=O)C1=CC2(CC1)CCN(C(=O)c1ccc(NC(=O)c3ccccc3-c3ccccc3)cc1)c1ccccc1C2 (stereo not shown) [Compound 9, 4-(2-Phenylbenzoyl-4-aminobenzoyl)-3′-[2-(N,N-dimethylaminoethylcarbonyl)]-4-aza-[6,4]-spiro-[5,6]-benzoundec-2′-ene] | 0.011 | 0.005 | 0.004 | inhibition at 10 µM (V1b; [3]): 12%
CN(C)CCNC(=O)C1=CC2(CC1)CCN(C(=O)c1ccc(NC(=O)c3ccccc3F)cc1)c1ccccc1C2 (stereo not shown) [Compound 16, 4-(2-Fluorobenzoyl-4-aminobenzoyl)-3′-[2-(N,N-dimethylaminoethylcarbonyl)]-4-aza-[6,4]-spiro-[5,6]-benzoundec-2′-ene] |  | 0.008 | 0.126 | inhibition at 0.1 µM (human V2 receptor; [4]): 17%; inhibition at 10 µM (V1b; [3]): 8%
O=C(NCCN1CCCC1)C1=CC2(CC1)CCN(C(=O)c1ccc(NC(=O)c3ccccc3F)cc1)c1ccccc1C2 (stereo not shown) [Compound 19] |  | 0.008 | 0.155 | Receptor Binding V1b (% Inh. @ concentration in μM) (V1b; @ 0.1 μM): 22% @ 0.1
(R)-4-(2-fluorophenylbenzoyl-4-aminobenzoyl)-3′-(2-(N,N-dimethylaminoethylaminocarbonyl))-4-aza-[6,4]-spiro-[5,6]-benzoundec-2′-ene [Compound 23] |  |  |  | Receptor Binding V2 (% Inh. @ concentration in μM) (human V2 receptor; @ 0.1 μM): 1% @ 0.1; Receptor Binding V1a (% Inh. @ concentration in μM) (V1a [1]; @ 0.1 μM): 15% @ 0.1; IC50 (V1b): 13.7 µM
O=C(NCCO)C1=CC2(CC1)CCN(C(=O)c1ccc(NC(=O)c3ccccc3-c3ccccc3)cc1)c1ccccc1C2 (stereo not shown) [Compound 6] | 0.011 | 0.006 | 0.005 | 
CCNc1ccc(C(=O)N2CCC3(CCCCC3)Cc3ccccc32)cc1 [Compound 26] | 10 | 0.16 | 0.105 | 
O=C(NCCN1CCCCC1)C1=CC2(CC1)CCN(C(=O)c1ccc(NC(=O)c3ccccc3F)cc1)c1ccccc1C2 (stereo not shown) [Compound 18] |  | 0.007 | 0.95 | inhibition at 0.1 µM (human V2 receptor; [4]): 23%
O=C(Nc1ccc(C(=O)N2CCC3(C=CCCC3)Cc3ccccc32)c(Cl)c1)c1ccccc1F (stereo not shown) [Compound 110] | 1 | 0.9 | 2.57 | 
O=C(Nc1ccc(C(=O)N2CCC3(C=CCCC3)Cc3ccccc32)cc1)c1ccccc1-c1ccccc1 (stereo not shown) [Compound 66, 4-(2-Phenylbenzoyl-4-aminobenzoyl)-4-aza-[6,5]-spiro-[5,6]-benzododec-2′-ene] | 0.19 | 0.83 | 0.025 | 
(S)-4-(2-fluorophenylbenzoyl-4-aminobenzoyl)-3′-(2-(N,N-dimethylaminoethylaminocarbonyl))-4-aza-[6,4]-spiro-[5,6]-benzoundec-2′-ene [Compound 22] |  | 0.003 |  | Receptor Binding V2 (% Inh. @ concentration in μM) (human V2 receptor; @ 0.1 μM): 15% @ 0.1; Receptor Binding V1b (% Inh. @ concentration in μM) (V1b; @ 10 μM): 17% @ 10
O=C(c1ccc(Cl)c(Cl)c1)N1CCC2(C=CCCC2)Cc2ccccc21 (stereo not shown) [Compound 48] |  |  | > 1 | inhibition at 10 µM (human V2 receptor; @ 10 μM, read-out: Receptor Binding V2 (% Inh. @ concentration in μM)): 16%; inhibition at 10 µM (V1a [1]; @ 10 μM, read-out: Receptor Binding V1a (% Inh. @ concentration in μM)): 33%
COc1ccc(C(=O)N2CCC3(C=CCCC3)Cc3ccccc32)cc1 (stereo not shown) [Compound 37] |  | 0.11 | 0.096 | Receptor Binding V2 (% Inh. @ concentration in μM) (human V2 receptor; @ 10 μM): 37% @ 10
O=C(NCCO)C1=CC2(CC1)CCN(C(=O)c1ccc(NC(=O)c3ccccc3F)cc1)c1ccccc1C2 (stereo not shown) [Compound 8] |  | 0.004 | 0.099 | inhibition at 0.1 µM (V1b; @ 0.1 μM, read-out: Receptor Binding V1b (% Inh. @ concentration in μM)): 41%
CN(C)CCNC(=O)C1=CC2(CC1)CCN(C(=O)c1ccc(NC(=O)c3ccccc3-c3ccccc3)cc1)c1ccccc1C2 (single isomer, unassigned) [Compound 21] | 0.44 | 0.181 | 0.008 | inhibition at 10 µM (V1b; [3]): 7%
CCCCOc1ccc(C(=O)N2CCC3(C=CCCC3)Cc3ccccc32)cc1 (stereo not shown) [Compound 53] | 8 | 0.06 | 0.104 | 
